Results reported in US9676760B2, “Fused heterocyclic compounds as ion channel modulators” (Gilead Sciences, Inc., priority 2011, dated 2017).
Read-outs that look alike come from different tables or passages of the source.

Tests used:
[1] = biological target: wild-type human cardiac sodium channel, hNav1.5 (Homo sapiens, UniProt Q14524); experiment: Peak INa screening assay (tonic and use-dependent block); type: cell-based; settings: for inhibition at 1 µM: compound at 1 μM
Procedure, shortened: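 Whole-cell automated patch clamp (QPatch) at 23–25°C on HEK293 cells stably expressing hNav1.5 alpha subunit only, with CsF/CsCl pipette solution, pH 7.4. Compound at 1 μM in extracellular solution; bath Na+ could be cut to 20 mM with a nonpermeant cation. Tonic block measured at 0.1 Hz, use-dependent block at 3 Hz.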

hERG potassium channel = hERG potassium channel (Homo sapiens, UniProt Q12809); experiment: hERG screening assay (PatchXpress, CHO cells); type: cell-based; design: hERG: unit not given here
Experimental: Compounds were also tested for their effect to block the hERG K^+ channel.
Compounds were screened to test their activity in blocking the hERG potassium channel at AVIVA Biosciences (San Deigo, Calif., USA). The hERG channel is heterologously expressed in a CHO (Chinese Hamster Ovary) cell line. Cells were maintained with standard tissue culture procedures and stable channel expression was maintained with 500 μg/mL G418 in the culture medium. Cells were harvested for testing on the PatchXpress 7000A automated patch clamp with Accumax (Innovative Cell Technologies, San Diego, Calif.) to isolate single cells.
The following solutions were used for electrophysiological recordings. The external solution contained: 2 mM CaCl2; 2 mM MgCl2; 4 mM KCl; 150 mM NaCl; 10 mM Glucose; 10 mM HEPES (pH 7.4 with 1M NaOH; osmolarity, ˜310 mOsm).
hERG channels were activated when the voltage was first stepped to −50 mV for 300 ms from the −80 mV holding potential and then stepped to +20 mV for 5 seconds. At +20 mV the channels open and then largely inactivate, so the currents are relatively small. Upon returning to −50 mV from +20 mV, hERG currents transiently become much larger as inactivation is rapidly removed and then the channel closes. The first step to −50 mV for 300 ms was used as a baseline for measuring the peak amplitude during the step to −50 mV after channel activation. The peak tail current at −50 mV was measured both under control conditions and after addition of compound, each cell serving as its own control.
All compounds were prepared as 10 mM DMSO stocks in glass vials. Stock solutions were mixed by vigorous vortexing and sonication for about 2 minutes at room temperature. For testing, compounds were diluted in glass vials using an intermediate dilution step in pure DMSO and then further diluted to working concentrations in external solution. Dilutions were prepared no longer than 20 minutes before use.
For the electrophysiological recordings, after achieving the whole-cell configuration, cells were monitored for 90 seconds to assess stability and washed with external solution for 66 seconds. The voltage protocol described above was then applied to the cells every 12 seconds and throughout the whole procedure. Only cells with stable recording parameters and meeting specified health criteria were allowed to enter the compound addition procedure.
External solution containing 0.1% DMSO (vehicle) was applied to the cells first to establish the control peak current amplitude. After allowing the current to stabilize for 3 to 5 minutes, 1 μM and then 10 μM test compounds were applied. Each compound concentration was added 4 times and cells were kept in test solution until the effect of the compound reached steady state or for a maximum of 12 minutes. […] Washout in the external solution compartment was performed until the recovery of the current reached steady state.

[2] = tonic block of peak INa, 0.1 Hz, read-out: Peak TB 1 μM
[3] = use-dependent block of peak INa, 3 Hz, read-out: Peak UDB 1 μM

Sequence of wild-type human cardiac sodium channel, hNav1.5 (Q14524 whole entry): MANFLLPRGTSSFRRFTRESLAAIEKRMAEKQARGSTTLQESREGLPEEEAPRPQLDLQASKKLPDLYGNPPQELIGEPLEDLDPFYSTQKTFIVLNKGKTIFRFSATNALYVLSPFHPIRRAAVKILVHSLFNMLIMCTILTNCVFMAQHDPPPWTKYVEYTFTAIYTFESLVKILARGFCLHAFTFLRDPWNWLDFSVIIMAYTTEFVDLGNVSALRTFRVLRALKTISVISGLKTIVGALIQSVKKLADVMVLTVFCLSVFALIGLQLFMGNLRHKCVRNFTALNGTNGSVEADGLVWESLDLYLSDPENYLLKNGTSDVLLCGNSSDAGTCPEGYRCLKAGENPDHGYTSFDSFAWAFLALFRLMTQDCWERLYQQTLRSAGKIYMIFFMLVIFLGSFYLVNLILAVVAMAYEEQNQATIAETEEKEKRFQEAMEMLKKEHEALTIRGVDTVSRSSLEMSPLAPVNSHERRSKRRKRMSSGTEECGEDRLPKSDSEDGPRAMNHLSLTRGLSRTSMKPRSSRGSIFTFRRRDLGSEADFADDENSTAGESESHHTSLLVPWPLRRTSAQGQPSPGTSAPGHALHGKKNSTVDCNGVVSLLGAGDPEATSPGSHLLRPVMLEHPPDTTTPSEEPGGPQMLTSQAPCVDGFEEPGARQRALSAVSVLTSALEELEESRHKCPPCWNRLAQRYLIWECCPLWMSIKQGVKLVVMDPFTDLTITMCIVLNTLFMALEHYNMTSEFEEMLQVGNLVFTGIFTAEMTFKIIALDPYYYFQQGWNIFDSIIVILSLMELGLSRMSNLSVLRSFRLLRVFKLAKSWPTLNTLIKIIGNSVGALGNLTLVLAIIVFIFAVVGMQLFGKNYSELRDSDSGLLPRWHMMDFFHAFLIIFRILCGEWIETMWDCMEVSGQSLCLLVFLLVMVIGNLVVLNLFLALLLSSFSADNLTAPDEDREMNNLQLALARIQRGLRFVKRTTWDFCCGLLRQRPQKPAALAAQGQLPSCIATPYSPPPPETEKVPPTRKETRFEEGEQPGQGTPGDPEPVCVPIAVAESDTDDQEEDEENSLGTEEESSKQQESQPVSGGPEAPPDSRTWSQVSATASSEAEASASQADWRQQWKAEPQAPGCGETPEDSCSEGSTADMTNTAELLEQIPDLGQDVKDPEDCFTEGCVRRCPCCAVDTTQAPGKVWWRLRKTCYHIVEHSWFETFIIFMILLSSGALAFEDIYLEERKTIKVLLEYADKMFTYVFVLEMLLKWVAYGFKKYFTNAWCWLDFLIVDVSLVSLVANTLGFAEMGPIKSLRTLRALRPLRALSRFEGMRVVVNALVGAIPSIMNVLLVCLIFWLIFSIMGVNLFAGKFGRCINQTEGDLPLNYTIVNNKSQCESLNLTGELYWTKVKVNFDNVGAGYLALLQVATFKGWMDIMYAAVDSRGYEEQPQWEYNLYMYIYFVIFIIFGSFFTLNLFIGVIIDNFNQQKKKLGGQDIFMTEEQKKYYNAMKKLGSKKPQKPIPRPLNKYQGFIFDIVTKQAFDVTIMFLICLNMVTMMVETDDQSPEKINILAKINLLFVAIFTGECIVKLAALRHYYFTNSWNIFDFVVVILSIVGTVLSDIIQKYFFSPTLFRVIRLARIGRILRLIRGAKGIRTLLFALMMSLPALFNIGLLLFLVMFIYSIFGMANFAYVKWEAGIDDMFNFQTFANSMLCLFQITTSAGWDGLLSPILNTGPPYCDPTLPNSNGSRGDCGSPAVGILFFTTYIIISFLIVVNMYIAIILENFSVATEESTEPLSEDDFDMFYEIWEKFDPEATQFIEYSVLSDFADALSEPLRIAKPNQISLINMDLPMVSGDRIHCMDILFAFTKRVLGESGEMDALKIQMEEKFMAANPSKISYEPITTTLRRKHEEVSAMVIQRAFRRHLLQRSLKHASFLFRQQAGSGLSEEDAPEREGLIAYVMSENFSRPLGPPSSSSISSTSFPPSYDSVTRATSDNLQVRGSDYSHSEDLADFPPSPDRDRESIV
Sequence of hERG potassium channel (Q12809 whole entry): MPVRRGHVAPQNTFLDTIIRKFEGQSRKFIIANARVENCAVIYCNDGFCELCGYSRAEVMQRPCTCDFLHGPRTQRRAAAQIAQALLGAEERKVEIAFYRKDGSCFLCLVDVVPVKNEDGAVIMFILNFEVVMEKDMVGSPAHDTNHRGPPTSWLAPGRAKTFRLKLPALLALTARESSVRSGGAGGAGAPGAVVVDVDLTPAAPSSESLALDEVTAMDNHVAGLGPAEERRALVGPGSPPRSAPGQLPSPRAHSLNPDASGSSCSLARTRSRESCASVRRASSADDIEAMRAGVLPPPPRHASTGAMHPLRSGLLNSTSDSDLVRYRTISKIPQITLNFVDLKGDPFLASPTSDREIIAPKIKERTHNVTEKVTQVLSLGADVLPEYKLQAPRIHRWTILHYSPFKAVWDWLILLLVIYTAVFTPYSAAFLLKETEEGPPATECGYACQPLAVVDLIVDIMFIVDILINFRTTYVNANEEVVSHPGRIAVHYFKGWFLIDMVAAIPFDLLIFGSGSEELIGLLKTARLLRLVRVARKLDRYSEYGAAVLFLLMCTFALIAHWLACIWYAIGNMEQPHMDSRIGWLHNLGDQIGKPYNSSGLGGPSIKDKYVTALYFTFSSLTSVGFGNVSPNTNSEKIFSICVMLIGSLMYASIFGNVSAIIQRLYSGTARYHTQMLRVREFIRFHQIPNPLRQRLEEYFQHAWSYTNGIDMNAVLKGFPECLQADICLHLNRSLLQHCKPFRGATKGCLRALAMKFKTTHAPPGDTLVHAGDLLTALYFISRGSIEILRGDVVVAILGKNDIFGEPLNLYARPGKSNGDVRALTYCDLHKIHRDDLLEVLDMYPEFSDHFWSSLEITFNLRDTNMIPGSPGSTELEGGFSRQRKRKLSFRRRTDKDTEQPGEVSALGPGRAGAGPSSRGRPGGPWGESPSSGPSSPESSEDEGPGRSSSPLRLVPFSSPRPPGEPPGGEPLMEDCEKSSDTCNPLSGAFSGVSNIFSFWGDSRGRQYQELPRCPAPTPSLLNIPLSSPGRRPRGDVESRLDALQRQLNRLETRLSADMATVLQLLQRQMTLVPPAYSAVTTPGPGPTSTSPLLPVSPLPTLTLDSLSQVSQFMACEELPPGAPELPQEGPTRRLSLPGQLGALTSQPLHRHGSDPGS

Compound: O=C1CN(Cc2ccccc2)C(=O)c2cc(-c3ccc(C(F)(F)F)cc3)ccc2N1 [Compound X-8, 4-benzyl-7-(4-(trifluoromethyl)phenyl)-3,4-dihydro-1H-benzo[e][1,4]diazepine-2,5-dione]
- inhibition at 1 µM [1, 2]: 6%
- inhibition at 1 µM [1, 3]: 10%
- hERG (hERG potassium channel): <10

Compound: O=C1c2cc(-c3ccc(C(F)(F)F)cc3)ccc2OC[C@H]2CN(CC(F)F)CCN12 [II-22, (R)-2-(2,2-difluoroethyl)-8-(4-(trifluoromethyl)phenyl)-3,4,12,12a-tetrahydro-1H-benzo[f]pyrazino[2,1-c][1,4]oxazepin-6(2H)-one]
- hERG (hERG potassium channel): 16

Compound: O=C1c2cc(-c3ccc(C(F)(F)F)cc3)ccc2OC[C@H]2CN(CC(F)(F)F)CCN12 [II-83, (R)-2-(2,2,2-trifluoroethyl)-8-(4-(trifluoromethyl)phenyl)-3,4,12,12a-tetrahydro-1H-benzo[f]pyrazino[2,1-c][1,4]oxazepin-6(2H)-one]
- hERG (hERG potassium channel): 21

Compound: O=C1c2cc(-c3ccc(Cl)cc3)ccc2OCCN1Cc1ncccn1 [II-88, 7-(4-chlorophenyl)-4-(pyrimidin-2-ylmethyl)-3,4-dihydrobenzo[f][1,4]oxazepin-5(2H)-one]
- hERG (hERG potassium channel): 26

Compound: CC(C)(C)c1ccc(-c2ccc3c(c2)C(=O)N(Cc2ncccn2)CCO3)cc1 [II-98, 7-(4-tert-butylphenyl)-4-(pyrimidin-2-ylmethyl)-3,4-dihydrobenzo[f][1,4]oxazepin-5(2H)-one]
- hERG (hERG potassium channel): <10

Compound: O=C1c2cc(-c3ccc(C(F)(F)F)cc3F)ccc2OCCN1Cc1ncccn1 [II-105, 7-(2-fluoro-4-(trifluoromethyl)phenyl)-4-(pyrimidin-2-ylmethyl)-3,4-dihydrobenzo[f][1,4]oxazepin-5(2H)-one]
- peak INa TB ([1]; measured at 1 μM): 9%
- peak INa UDB ([1]; measured at 1 μM): 11%
- inhibition at 1 µM [1, 2]: 9%
- inhibition at 1 µM [1, 3]: 11%
- hERG (hERG potassium channel): <10
- inhibited (or reduced) the activity of the hERG potassium channel (hERG potassium channel; at 1 μM): < 10%

Compound: O=C1c2cc(-c3ccc(C(F)(F)F)cc3Cl)ccc2OCCN1Cc1ncccn1 [II-110, 7-(2-chloro-4-(trifluoromethyl)phenyl)-4-(pyrimidin-2-ylmethyl)-3,4-dihydrobenzo[f][1,4]oxazepin-5(2H)-one]
- hERG (hERG potassium channel): 26

Compound: O=C1c2cc(-c3ccc(Cl)cc3F)ccc2OCCN1Cc1ncccn1 [II-117, 7-(4-chloro-2-fluorophenyl)-4-(pyrimidin-2-ylmethyl)-3,4-dihydrobenzo[f][1,4]oxazepin-5(2H)-one]
- hERG (hERG potassium channel): <10

Compound: O=C1c2cc(-c3ccc(C(F)(F)F)cc3)ccc2OCCN1Cc1cn2ccccc2n1 [II-129, 4-(imidazo[1,2-a]pyridin-2-ylmethyl)-7-(4-(trifluoromethyl)phenyl)-3,4-dihydrobenzo[f][1,4]oxazepin-5(2H)-one]
- hERG (hERG potassium channel): 17

Compound: O=C(c1ncccn1)N1CCOc2ccc(-c3ccc(OC(F)(F)F)cc3)cc2C1 [III-1, pyrimidin-2-yl(7-(4-(trifluoromethoxy)phenyl)-2,3-dihydrobenzo[f][1,4]oxazepin-4(5H)-yl)methanone]
- hERG (hERG potassium channel): <10

Compound: O=C1c2cc(C#Cc3ccc(OC(F)(F)F)cc3)ccc2OCCN1Cc1ncccn1 [VIII-4, 4-(pyrimidin-2-ylmethyl)-7-((4-(trifluoromethoxy)phenyl)ethynyl)-3,4-dihydrobenzo[f][1,4]oxazepin-5(2H)-one]
- inhibition at 1 µM [1, 2]: 12%
- inhibition at 1 µM [1, 3]: 19%
- hERG (hERG potassium channel): 30

Compound: O=C1c2cc(C#Cc3ccc(C(F)(F)F)cc3)ccc2OCCN1Cc1ncccn1 [VIII-6, 4-(pyrimidin-2-ylmethyl)-7-((4-(trifluoromethyl)phenyl)ethynyl)-3,4-dihydrobenzo[f][1,4]oxazepin-5(2H)-one]
- hERG (hERG potassium channel): <10
